The values below come from patent publication EP4755888A1 (ILAb Co., Ltd., priority 2023, dated 2025).

In assay [1] the target is T1, PD-L1 expressed on the cell surface (MC38 hPD-L1) (Homo sapiens, UniProt Q9NZQ7).
T1 construct: expressed in transfected cells; host or cells: MC38 mouse colon cancer cell line expressing human PD-L1
Briefly: Internalization of cell surface PD-L1, flow cytometry with fluorescent staining. It is filed as cell-based. To be noted: MC38 hPD-L1 cells, 1 µM, 4 hours; untreated 90% to 99%. The procedure: In order to evaluate the internalization of cell surface PD-L1 induced by the compounds of the present invention synthesized according to the above Preparation Examples, a flow cytometry experiment using fluorescent staining was conducted as described below.
Specifically, a mouse colon cancer cell line expressing human PD-L1 (MC38 hPD-L1) was seeded into a 24-well plate at a density of 5 x 10^5 cells per well, followed by treatment with Compounds 206 to 227 at a concentration of 1 µM and incubation for 4 hours. After 4 hours, the compound-treated MC38 hPD-L1 cells were collected and stained with PE anti-hPD-L1 fluorecence at room temperature for 30 minutes. The rate of PD-L1 expression on the cell surface was then quantified using flow cytometry.
On the technique in general: A flow cytometer gives signals particle by particle.

The target of assay [2] is PD-1/PD-L1 (Homo sapiens, UniProt Q9NZQ7). Briefly: TR-FRET PD-1/PD-L1 binding inhibition at the molecular level (free proteins). The settings on record: Tag1-PD-L1 and Tag2-PD-1 proteins, twelve concentrations from 200 nM, 2 hours at room temperature, read-out: FRET assay (IC50). In outline:
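HTRF read-out at 665/620 nm after 2 h at room temperature. Detection used anti-Tag1 Eu cryptate plus anti-Tag2 XL665 antibodies. Tagged PD-L1 and PD-1 proteins were pre-mixed with compound across twelve […] 1:2 dilutions starting at 200 nM.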
A general note: TR-FRET usually uses a lanthanide donor and a delayed reading to cut background.

In assay [3] the test system is PD-1/PD-L1. The assay is described as follows: PD-1/PD-L1 blockade bioassay at the cellular level (PD-L1 aAPC/CHO-K1 cells + PD-1 Effector T cells, luciferase). It is filed as cell-based. To be noted: Homo sapiens, T-cell; PD-L1 aAPC/CHO-K1 cells with PD-1 Effector T cells, 6 hours, luminescence; read-out: PD-1/PD-L1 Inhibitory Activity EC50. The procedure: In order to evaluate the effect of the compounds of the present invention, synthesized according to the above Preparation Examples, on blocking signal transduction between PD-1/PD-L1-expressing cells, a PD-1/PD-L1 blockade bioassay was conducted as described below.
Specifically, PD-L1 aAPC/CHO-K1 cells engineered to express human PD-L1 were seeded into a 96-well white plate and cultured for one day. On the following day, the compounds were prepared in a 96-well plate by serial dilution at concentrations starting from 10 µM and 5 µM, followed by 1/4 dilutions to obtain a total of ten concentrations. The culture medium in the plate seeded with the PD-L1 aAPC/CHO-K1 cell line was removed, and 40 µL of each prepared compound solution was added to a 96-well plate. Thereafter, 40 µL of PD-1 Effector T cell line engineered to express human PD-1 was additionally added, and then cultured for 6 hours. After 6 hours, 80 µL of Bio-Glo luciferase buffer was added to each well, followed by incubation at room temperature for 10 minutes, and luminescence was measured using a microplate reader.

SMILES strings stand for the structures.

T1 sequence (Q9NZQ7 19-290): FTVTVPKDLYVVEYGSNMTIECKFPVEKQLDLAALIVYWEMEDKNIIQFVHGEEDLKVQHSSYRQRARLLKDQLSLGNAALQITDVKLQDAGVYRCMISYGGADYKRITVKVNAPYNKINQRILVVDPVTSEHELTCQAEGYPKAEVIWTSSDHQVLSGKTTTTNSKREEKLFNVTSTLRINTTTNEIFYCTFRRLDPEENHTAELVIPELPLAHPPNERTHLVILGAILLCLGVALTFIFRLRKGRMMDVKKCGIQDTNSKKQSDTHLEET
Chain of PD-1/PD-L1 (Homo sapiens, UniProt Q9NZQ7) (Q9NZQ7 19-238 limits assumed): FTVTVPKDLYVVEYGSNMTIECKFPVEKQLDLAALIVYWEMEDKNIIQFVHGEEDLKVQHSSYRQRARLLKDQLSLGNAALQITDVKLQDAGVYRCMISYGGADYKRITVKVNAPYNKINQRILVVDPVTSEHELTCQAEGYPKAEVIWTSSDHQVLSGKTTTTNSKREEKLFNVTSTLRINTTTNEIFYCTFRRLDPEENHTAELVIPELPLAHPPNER

For the compound `O=C(Nc1cccc(-c2cccc(NC(=O)c3cc4n(n3)CCC[C@@H]4NCCO)c2Cl)c1Cl)c1ccc(CNCCO)cn1` [Compound 206, (S)-N-(2,2'-dichloro-3'-(5-(((2-hydroxyethyl)amino)methyl)picolinamido)-[1,1'-biphenyl]-3-yl)-4-((2-hydroxyethyl)amino)-4,5,6,7-tetrahydropyrazolo[1,5-a]pyridine-2-carboxamide], the “Cell surface PD-L1 expression level (%)” value in assay [1] amounted to 0.9%. Moreover, the IC50 at PD-1/PD-L1 [2] was less than 10 nM. Further, the EC50 with PD-1/PD-L1 [3] was determined as 15.7 nM. For the compound `O=C(Nc1cccc(-c2cccc(NC(=O)c3cc4n(n3)CCC[C@H]4NCCO)c2Cl)c1Cl)c1ccc(CNCCO)cn1` [Compound 207, (R)-N-(2,2'-dichloro-3'-(5-(((2-hydroxyethyl)amino)methyl)picolinamido)-[1,1'-biphenyl]-3-yl)-4-((2-hydroxyethyl)amino)-4,5,6,7-tetrahydropyrazolo[1,5-a]pyridine-2-carboxamide], the “Cell surface PD-L1 expression level (%)” value in assay [1] was determined as 77.5%. Also, the IC50 on PD-1/PD-L1 [2] was less than 10 nM. For the same compound, in the assay with PD-1/PD-L1 [3], the EC50 is 85.8 nM.

As to `O=C(Nc1cccc(-c2cccc(NC(=O)c3cc4n(n3)CCC[C@H]4N3CC[C@@H](C(=O)O)C3)c2Cl)c1Cl)c1ccc(CNCCO)cn1` [Compound 209, (R)-1-((R)-2-((2,2'-dichloro-3'-(5-(((2-hydroxyethyl)amino)methyl)picolinamido)-[1,1'-biphenyl]-3-yl)carbamoyl)-4,5,6,7-tetrahydropyrazolo[1,5-a]pyridin-4-yl)pyrrolidine-3-carboxylic acid], the “Cell surface PD-L1 expression level (%)” value in assay [1] is 71.0%. Further, at PD-1/PD-L1 [2], the IC50 was less than 10 nM. As for `Cc1c(NC(=O)c2cc3n(n2)CCC[C@H]3N2CC[C@@H](C(=O)O)C2)cccc1-c1cccc(Nc2nc(C(F)F)nc3cc(CN4CC[C@@H](O)C4)cnc23)c1C` [Compound 211, (R)-1-((R)-2-((3'-((2-(difluoromethyl)-7-(((R)-3-hydroxypyrrolidin-1-yl)methyl)pyrido[3,2-d]pyrimidin-4-yl)amino)-2,2'-dimethyl-[1,1'-biphenyl]-3-yl)carbamoyl)-4,5,6,7-tetrahydropyrazolo[1,5-a]pyridin-4-yl)pyrrolidine-3-carboxylic acid], the “Cell surface PD-L1 expression level (%)” value in assay [1] is reported as 75.3%. For the same compound, the IC50 at PD-1/PD-L1 [2] is less than 10 nM. On to `Cc1c(NC(=O)c2cc3n(n2)CCC[C@H]3NCC(=O)O)cccc1-c1cccc(Nc2nc(C(F)F)nc3cc(CN4CC[C@@H](O)C4)cnc23)c1C` [Compound 213, 2-(((R)-2-((3'-((2-(difluoromethyl)-7-(((R)-3-hydroxypyrrolidin-1-yl)methyl)pyrido[3,2-d]pyrimidin-4-yl)amino)-2,2'-dimethyl-[1,1'-biphenyl]-3-yl)carbamoyl)-4,5,6,7-tetrahydropyrazolo[1,5-a]pyridin-4-yl)amino)acetic acid], for which, in assay [1], the “Cell surface PD-L1 expression level (%)” value stood at 73.9%. For the same compound, the IC50 on PD-1/PD-L1 [2] is less than 10 nM. Turning to `Cc1c(NC(=O)c2ccc(CN3CC[C@@H](O)C3)cn2)cccc1-c1cccc(NC(=O)c2cc3n(n2)CCC[C@H]3NCCO)c1C` [Compound 215, (R)-4-((2-hydroxyethyl)amino)-N-(3'-(5-(((R)-3-hydroxypyrrolidin-1-yl)methyl)picolinamido)-2,2'-dimethyl-[1,1'-biphenyl]-3-yl)-4,5,6,7-tetrahydropyrazolo[1,5-a]pyridine-2-carboxamide], the “Cell surface PD-L1 expression level (%)” value in assay [1] is recorded as 88.7%. In addition, at PD-1/PD-L1 [2], the IC50 is less than 10 nM. With `O=C(O)CN[C@@H]1CCCn2nc(C(=O)Nc3cccc(-c4cccc(Nc5nccc6cc(CN7CC[C@@H](O)C7)cnc56)c4Cl)c3Cl)cc21` [Compound 219, 2-(((R)-2-((2,2'-dichloro-3'-((3-(((R)-3-hydroxypyrrolidin-1-yl)methyl)-1,7-naphthyridin-8-yl)amino)-[1,1'-biphenyl]-3-yl)carbamoyl)-4,5,6,7-tetrahydropyrazolo[1,5-a]pyridin-4-yl)amino)acetic acid], the “Cell surface PD-L1 expression level (%)” value in assay [1] is 36.5%. In addition, on PD-1/PD-L1 [2], the IC50 is less than 10 nM.

As to `O=C(O)CN[C@@H]1CCCn2nc(C(=O)Nc3cccc(-c4cccc(NC(=O)c5ccc(CNCCO)cn5)c4Cl)c3Cl)cc21` [Compound 221, (R)-2-((2-((2,2'-dichloro-3'-(5-(((2-hydroxyethyl)amino)methyl)picolinamido)-[1,1'-biphenyl]-3-yl)carbamoyl)-4,5,6,7-tetrahydropyrazolo[1,5-a]pyridin-4-yl)amino)acetic acid], the “Cell surface PD-L1 expression level (%)” value in assay [1] stood at 41.3%. In addition, the IC50 on PD-1/PD-L1 [2] was less than 10 nM. Consider `O=C(O)CN[C@@H]1CCCn2nc(C(=O)Nc3cccc(-c4cccc(NC(=O)c5ccc(CN6CC[C@@H](O)C6)cn5)c4Cl)c3Cl)cc21` [Compound 223, 2-(((R)-2-((2,2'-dichloro-3'-(5-(((R)-3-hydroxypyrrolidin-1-yl)methyl)picolinamido)-[1,1'-biphenyl]-3-yl)carbamoyl)-4,5,6,7-tetrahydropyrazolo[1,5-a]pyridin-4-yl)amino)acetic acid], for which, in assay [1], the “Cell surface PD-L1 expression level (%)” value was found to be 66.4%. Besides, the IC50 at PD-1/PD-L1 [2] was 10 to 100 nM. Regarding `O=C1CC[C@@H](CN[C@H]2CCCn3nc(C(=O)Nc4cccc(-c5cccc(NC(=O)c6ccc(CNCCO)cn6)c5Cl)c4Cl)cc32)N1` [Compound 224, (S)-N-(2,2'-dichloro-3'-(5-(((2-hydroxyethyl)amino)methyl)picolinamido)-[1,1'-biphenyl]-3-yl)-4-((((S)-5-oxopyrrolidin-2-yl)methyl)amino)-4,5,6,7-tetrahydropyrazolo[1,5-a]pyridine-2-carboxamide], in assay [1], the “Cell surface PD-L1 expression level (%)” value is recorded as 70.8%. Further, the IC50 at PD-1/PD-L1 [2] is less than 10 nM. Regarding `O=C1CC[C@@H](CN[C@@H]2CCCn3nc(C(=O)Nc4cccc(-c5cccc(NC(=O)c6ccc(CNCCO)cn6)c5Cl)c4Cl)cc32)N1` [Compound 225, (R)-N-(2,2'-dichloro-3'-(5-(((2-hydroxyethyl)amino)methyl)picolinamido)-[1,1'-biphenyl]-3-yl)-4-((((S)-5-oxopyrrolidin-2-yl)methyl)amino)-4,5,6,7-tetrahydropyrazolo[1,5-a]pyridine-2-carboxamide], the “Cell surface PD-L1 expression level (%)” value in assay [1] is 1.6%. Further, the IC50 on PD-1/PD-L1 [2] fell in the range of 10 to 100 nM. Regarding `O=C(Nc1cccc(-c2cccc(Nc3nccc4cc(CN5CC[C@H](O)C5)cnc34)c2Cl)c1Cl)c1cc2n(n1)CCC[C@@H]2N1CCC(C(=O)O)CC1` [Compound 226, 1-((S)-2-((2,2'-dichloro-3'-((3-(((S)-3-hydroxypyrrolidin-1-yl)methyl)-1,7-naphthyridin-8-yl)amino)-[1,1'-biphenyl]-3-yl)carbamoyl)-4,5,6,7-tetrahydropyrazolo[1,5-a]pyridin-4-yl)piperidine-4-carboxylic acid], in assay [1], the “Cell surface PD-L1 expression level (%)” value is recorded as 80.8%. Besides, at PD-1/PD-L1 [2], the IC50 was in the range of 10 to 100 nM. In the case of `CN[C@@H]1CCCn2nc(C(=O)Nc3cccc(-c4cccc(Nc5nc(C(F)F)nc6cc(CN7CC[C@@H](O)C7)cnc56)c4Cl)c3Cl)cc21` [Compound 355, (R)-N-(2,2'-dichloro-3'-((2-(difluoromethyl)-7-(((R)-3-hydroxypyrrolidin-1-yl)methyl)pyrido[3,2-d]pyrimidin-4-yl)amino)-[1,1'-biphenyl]-3-yl)-4-(methylamino)-4,5,6,7-tetrahydropyrazolo[1,5-a]pyridine-2-carboxamide], the IC50 at PD-1/PD-L1 [2] was 10 to 100 nM.

`CN[C@H]1CCCn2nc(C(=O)Nc3cccc(-c4cccc(Nc5nc(C(F)(F)F)nc6cccnc56)c4Cl)c3Cl)cc21` [Compound 356, (S)-N-(2,2'-dichloro-3'-((2-(trifluoromethyl)pyrido[3,2-d]pyrimidin-4-yl)amino)-[1,1'-biphenyl]-3-yl)-4-(methylamino)-4,5,6,7-tetrahydropyrazolo[1,5-a]pyridine-2-carboxamide]: at PD-1/PD-L1 [2], the IC50 was 10 to 100 nM. As to `CN[C@@H]1CCCn2nc(C(=O)Nc3cccc(-c4cccc(Nc5nc(C(F)(F)F)nc6cccnc56)c4Cl)c3Cl)cc21` [Compound 357, (R)-N-(2,2'-dichloro-3'-((2-(trifluoromethyl)pyrido[3,2-d]pyrimidin-4-yl)amino)-[1,1'-biphenyl]-3-yl)-4-(methylamino)-4,5,6,7-tetrahydropyrazolo[1,5-a]pyridine-2-carboxamide], at PD-1/PD-L1 [2], the IC50 lay within 10 to 100 nM.

The IC50 is the point on the concentration scale where inhibition reaches its midpoint.
